Results: US12409154B2, “Pharmaceutical compositions for use in treating pain” (TAIWAN LIPOSOME COMPANY, LTD., priority 2019, dated 2025)

Legend:
[1] = test system: adult subjects following inguinal hernia repair surgery; assay: Phase I/II study, single infiltrative local administration after inguinal hernia repair surgery: efficacy (NPRS pain, rescue analgesic use); format: in vivo, human; details: TLC590 475 mg, ropivacaine group 150 mg
Excerpt: A Phase I/II, randomized, double-blind, comparator-controlled, dose-escalation study to assess the safety, PK, and efficacy of single postsurgical application of the anesthetic composition in accordance with the present disclosure (denoted as TLC590) compared with Naropin® via a single infiltrative local administration in adult subjects following inguinal hernia repair surgery. The study enrolled approximately 64 evaluable subjects who met all entry criteria across 4 cohorts. Dose escalation of a single postsurgical administration of TLC590 was performed using sequential dose levels, as compared with Naropin®. Dose-escalation were determined by review of […] (TEAEs) and all serious AEs (SAEs) by a safety monitoring committee (SMC). […] Pain intensity at rest and with movement assessed using an 11-point NPRS ranging from a score of 0 (no pain) to 10 (worst possible pain). • 2. […]

[2] = pKa of ropivacaine and calculated uncharged fraction; format: physicochemical; details: pH 6.0; calculated from pKa
Description: In some embodiments, the lipid-based complex of the anesthetic composition is formed by hydrating a lyophilized lipid cake with a pharmaceutically acceptable buffer solution at a pH higher than 5.5. […] In some embodiments, the lipid cake according to the present disclosure is prepared by dissolving apolar ropivacaine, phospholipid, and cholesterol in a solvent system, e.g., tert-butanol alone or a tert-butanol/water cosolvent, followed by removing the solvent system using a lyophilization technique.

CCCN1CCCC[C@H]1C(=O)Nc1c(C)cccc1C [ropivacaine]
median time to first rescue analgesic [1]: 13 h
median time to first postsurgical opioid use ([1]; among those who used rescue opioid): 3.3 h
theoretically uncharged ropivacaine, share of available ropivacaine [2]: 0.8%
